How the values were obtained:
[1] = system: pigweed; test: Test A preemergence; assay type: in vivo, Amaranthus retroflexus; conditions: for Pigweed plant response rating: 500 g ai/ha
Procedure, shortened: (§1)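 Visual 0–100 rating (100 = complete control) taken about 10 d post-treatment relative to untreated checks. Preemergence: directed soil spray on sown loam/sand pots. Postemergence: seedlings 2–10 cm, 1–2 leaf. Non-phytotoxic solvent formulation with surfactant.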

[2] = system: rice; test: Test B flooded paddy test; assay type: in vivo, Oryza sativa; conditions: Flood, 250 g ai/ha; 0 to 100 scale where 0 is no effect and 100 is complete control
Procedure, shortened: (§2)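 Evaluation is visual, against untreated controls, 13 to 15 days after treatment. Before treatment, plants reached the 2-leaf stage; pots were then flooded 3 cm deep, compound was added to the water, and that level was maintained. Ratings run 0 to 100, with 100 meaning complete control.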

[3] = system: barnyardgrass; test: Test A postemergence; assay type: in vivo, Echinochloa crus-galli
Procedure, shortened: as §1

[4] = system: waterhemp; test: Test C preemergence; assay type: in vivo, Amaranthus rudis; conditions: for Waterhemp plant response rating: preemergence; for Plant response rating, Waterhemp: Preemergence, scale 0 to 100, 0 no effect, 100 complete control
Procedure, shortened: (§3)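 Plants were kept under greenhouse conditions for 13–15 days following spray. Pre-emergent application went to soil (loam–sand), post-emergent to foliage at 1–4 leaves. Evaluation: visual, percent control against untreated checks.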

[5] = system: soybean; test: Test C preemergence; assay type: in vivo, Glycine max; conditions: for Soybean plant response rating: preemergence; for Plant response rating, Soybean: Preemergence, scale 0 to 100, 0 no effect, 100 complete control
Procedure, shortened: as §3

[6] = system: morningglory; test: Test C preemergence; assay type: in vivo, Ipomoea coccinea; conditions: for Morningglory plant response rating: preemergence; for Plant response rating, Morningglory: Preemergence, scale 0 to 100, 0 no effect, 100 complete control
Procedure, shortened: as §3

[7] = system: morningglory; test: Test A preemergence; assay type: in vivo, Ipomoea spp.; conditions: for Morningglory plant response rating: 500 g ai/ha
Procedure, shortened: as §1

[8] = system: velvetleaf; test: Test A postemergence; assay type: in vivo, Abutilon theophrasti; conditions: 0 to 100 scale where 0 is no effect and 100 is complete control; for Velvetleaf plant response rating: 125 g ai/ha; for Plant response rating, Velvetleaf: 500 g ai/ha
Procedure, shortened: as §1

[9] = system: barnyardgrass; test: Test C preemergence; assay type: in vivo, Echinochloa crus-galli; conditions: for Barnyardgrass plant response rating: preemergence; for Plant response rating, Barnyardgrass: Preemergence, scale 0 to 100, 0 no effect, 100 complete control
From the text: Seeds of plant species selected from blackgrass (Alopecurus myosuroides), Italian ryegrass (Lolium multiflorum), wheat, winter (winter wheat, Triticum aestivum), galium (catchweed bedstraw, Galium aparine), corn (Zea mays), large (Lg) crabgrass (Digitaria sanguinalis), giant foxtail (Setaria faberii), johnsongrass (Sorghum halepense), lambsquarters (Chenopodium album), morningglory (Ipomoea coccinea), yellow nutsedge (Cyperus esculentus), pigweed (Amaranthus retroflexus), ragweed (common ragweed, Ambrosia elatior), soybean (Glycine max), barnyardgrass (Echinochloa crus-galli), oilseed rape (Brassica napus), waterhemp (common waterhemp, Amaranthus rudis), kochia (Kochia scoparia), wild oat (Avena fatua), surinam grass (Brachiaria decumbens), foxtail, green (green foxtail, Setaria viridis), goosegrass (Eleusine indica), bromegrass, downy (downy bromegrass, Bromus tectorum), nightshade (eastern black nightshade, Solanum ptycanthum), cocklebur (common cocklebur, Xanthium strumarium), cupgrass, woolly (woolly cupgrass, Eriochloa villosa), bermudagrass (Cynodon dactylon), sunflower, (common oilseed sunflower, Helianthus annuus), Russian thistle (Salsola kali), and velvetleaf (Abutilon theophrasti) were planted into a blend of loam soil and sand and treated preemergence with test chemicals formulated in a non-phytotoxic solvent mixture which included a surfactant.
At the same time, plants selected from these crop and weed species and also barley, winter (winter barley, Hordeum vulgare), windgrass (Apera spica-venti), chickweed (common chickweed, Stellaria media), deadnettle (henbit deadnettle, Lamium amplexicaule), and canarygrass (littleseed canarygrass, Phalaris minor) were planted in pots containing Redi-Earth® planting medium (Scotts Company, 14111 Scottslawn Road, Marysville, Ohio 43041) comprising spaghnum peat moss, vermiculite, wetting agent and starter nutrients and treated with postemergence applications of test chemicals formulated in the same manner. Plants ranged in height from 2 to 18 cm (1- to 4-leaf stage) for postemergence treatments. Treated plants and controls were maintained in a greenhouse for 13 to 15 days, after which time all species were compared to controls and visually evaluated. Plant response ratings, summarized in Table C, are based on a scale of 0 to 100 where 0 is no effect and 100 is complete control. A dash (-) response means no test result.

[10] = system: barnyardgrass; test: Test B flooded paddy test; assay type: in vivo, Echinochloa crus-galli; conditions: Flood, 250 g ai/ha; 0 to 100 scale where 0 is no effect and 100 is complete control
Procedure, shortened: as §2

[11] = system: pigweed; test: Test A postemergence; assay type: in vivo, Amaranthus retroflexus; conditions: for Pigweed plant response rating: 125 g ai/ha
Procedure, shortened: as §1

[12] = system: wheat, winter; test: Test C preemergence; assay type: in vivo, Triticum aestivum; conditions: for Wheat plant response rating: preemergence; for Plant response rating, Wheat: Preemergence, scale 0 to 100, 0 no effect, 100 complete control
Procedure, shortened: as §3

[13] = 0 to 100 scale where 0 is no effect and 100 is complete control
[14] = 125 g ai/ha, 0 to 100 scale where 0 is no effect and 100 is complete control
[15] = 500 g ai/ha, 0 to 100 scale where 0 is no effect and 100 is complete control
[16] = 16 g ai/ha, scale 0 to 100 (0 no effect, 100 complete control)
[17] = 125 g ai/ha, scale 0 (no effect) to 100 (complete control)
[18] = 0 to 100 scale, 0 no effect, 100 complete control, approx. 10 days
[19] = 62 g ai/ha, scale 0 (no effect) to 100 (complete control)
[20] = 31 g ai/ha, 0 to 100 scale, 0 no effect, 100 complete control

SMILES | Plant response rating, Rice [2] | Barnyardgrass plant response rating [3, 14] | Plant response rating, Barnyardgrass [3, 15] | Waterhemp plant response rating [4, 16] | Waterhemp plant response rating [4, 17] | Soybean plant response rating [5, 16] | Soybean plant response rating [5, 17] | Morningglory plant response rating [6, 16] | Morningglory plant response rating [6, 17] | Barnyardgrass plant response rating [9, 16] | Barnyardgrass plant response rating [9, 17] | Plant response rating, Barnyardgrass [10] | Wheat plant response rating [12, 16] | Wheat plant response rating [12, 17] | Waterhemp plant response rating [4, 19] | Soybean plant response rating [5, 19] | Morningglory plant response rating [6, 19] | Barnyardgrass plant response rating [9, 19] | Plant response rating, Barnyardgrass ([9]; 31 g ai/ha) | Wheat plant response rating [12, 19] | other results
CCOc1cnn(-c2ccccc2Oc2ncc(Cl)cn2)c1 [Compound 187] | 0 | 80 | 90 | 25 | 95 | 5 | 85 | 0 | 5 | 5 | 90 | 0 | 0 | 0 | – | – | – | – | – | – | Pigweed plant response rating (0 to 100 scale) ([1]; 125 g ai/ha): 100; Pigweed plant response rating [1, 13]: 100; Plant response rating, Waterhemp ([4]; 62 g ai/ha): 85; Plant response rating, Soybean ([5]; 62 g ai/ha): 55; Plant response rating, Morningglory ([6]; 62 g ai/ha): 0; Morningglory plant response rating (0 to 100 scale) ([7]; 125 g ai/ha): 0; Morningglory plant response rating [7, 13]: 50; Velvetleaf plant response rating [8]: 100; Plant response rating, Velvetleaf [8]: 100; Plant response rating, Barnyardgrass ([9]; 62 g ai/ha): 65; Pigweed plant response rating [11, 13]: 70; Plant response rating, Pigweed [11, 15]: 100; Plant response rating, Wheat ([12]; 62 g ai/ha): 0
Fc1cnc(Oc2cccc(C(F)F)c2-n2cc(Br)cn2)nc1 [Compound 112] | 0 | – | 90 | 90 | 100 | 10 | 95 | 5 | 75 | 0 | 90 | 0 | 0 | 10 | 100 | 50 | 65 | 30 | 5 | 0 | Plant response rating, Pigweed [1, 14]: 100; Pigweed plant response rating [1, 18]: 100; Plant response rating, Barnyardgrass [3, 14]: 40; Plant response rating, Waterhemp ([4]; 31 g ai/ha): 98; Plant response rating, Soybean ([5]; 31 g ai/ha): 35; Plant response rating, Morningglory ([6]; 31 g ai/ha): 15; Plant response rating, Morningglory [7, 14]: 80; Morningglory plant response rating [7, 18]: 90; Plant response rating, Velvetleaf [8]: 100; Plant response rating, Pigweed [11, 15]: 100; Plant response rating, Wheat ([12]; 31 g ai/ha): 0
FCc1cccc(Oc2ncc(F)cn2)c1-n1cc(C(F)(F)F)cn1 [Compound 118] | 60 | – | – | 85 | 100 | 60 | 95 | 40 | 100 | 20 | 100 | 50 | 0 | 90 | 100 | 90 | 100 | 100 | 80 | 10 | Pigweed plant response rating (0 to 100 scale) ([1]; 31 g ai/ha): 100; Plant response rating, Pigweed [1, 14]: 100; Plant response rating, Barnyardgrass [3, 20]: 30; Plant response rating, Barnyardgrass [3, 14]: 80; Plant response rating, Waterhemp ([4]; 31 g ai/ha): 100; Plant response rating, Soybean ([5]; 31 g ai/ha): 75; Plant response rating, Morningglory ([6]; 31 g ai/ha): 75; Plant response rating, Pigweed [11, 20]: 70; Plant response rating, Wheat ([12]; 31 g ai/ha): 0
Fc1cccc(Oc2ncc(Cl)cn2)c1-n1cc(I)cn1 [Compound 179] | 0 | 80 | 100 | 90 | 100 | 0 | 65 | 10 | 90 | 5 | 100 | 20 | 0 | 5 | 98 | 45 | 35 | 90 | 10 | 0 | Pigweed plant response rating (0 to 100 scale) ([1]; 125 g ai/ha): 100; Pigweed plant response rating [1, 13]: 100; Morningglory plant response rating (0 to 100 scale) ([7]; 125 g ai/ha): 10; Morningglory plant response rating [7, 13]: 80; Velvetleaf plant response rating [8]: 100; Plant response rating, Velvetleaf [8]: 100; Pigweed plant response rating [11, 13]: 100; Plant response rating, Pigweed [11, 15]: 100
N#Cc1cnn(-c2c(CF)cccc2Oc2ncc(F)cn2)c1 [Compound 151] | 20 | 60 | – | 95 | 100 | 35 | 95 | 0 | 25 | 5 | 100 | 0 | 0 | 40 | 100 | 85 | 10 | 70 | 5 | 0 | Plant response rating, Pigweed ([1]; 31 g ai/ha, 0 to 100 scale where 0 is no effect and 100 is complete control, visual, approximately 10 days): 90; Plant response rating, Pigweed [1, 14]: 90; Plant response rating, Barnyardgrass [3, 20]: 0; Plant response rating, Pigweed [11, 20]: 20; Pigweed plant response rating [11, 13]: 70
